Here are results for one compound from patent publication US10765672B2, “Pharmaceutical formulations of a HIF hydroxylase inhibitor” (FibroGen, Inc., priority 2013, dated 2020).

A short description of this data set: Solid state sunlight exposure of Compound A powder, reverse phase HPLC. The data set is classed as physicochemical. To be noted: for purity value as measured by reverse phase HPLC: Compound A dry powder. The procedure: Approximately 500 mg of Compound A dry powder was placed in a 1-gallon polyethylene bag and exposed to sunlight for two months consecutively during daylight hours. The powder was in a very thin layer and the bag was shaken often to ensure that all the powder and not just the top layer was exposed to sunlight. A control sample of Compound A powder was stored in an amber vial in the dark for the same amount of time for comparison purposes. […] The light-exposed sample and the control sample were analyzed by HPLC to evaluate differences in their composition. The HPLC method used a reverse phase Zorbax Eclipse XDB-C8, 3.5 μm, 4.6×150 mm column. The mobile phase was comprised of water and acetonitrile mixtures acidified with trifluoroacetic acid. Gradient elution with increasing acetonitrile provided chromatograms of the control sample of Compound A (FIG. 1, before light exposure) and the light-exposed sample of Compound A (FIG. 1, after light exposure) with UV detection at 230 nm.
After exposure to sunlight, a new peak appeared in the chromatogram evidencing a new molecule.

Each structure is given as a SMILES string.

On to `Cc1nc(C(=O)NCC(=O)O)c(O)c2ccc(Oc3ccccc3)cc12` [Compound A, [(4-hydroxy-1-methyl-7-phenoxy-isoquinoline-3-carbonyl)-amino]-acetic acid], for which the “purity value as measured by reverse phase HPLC” value was 98.4% (after exposure to sunlight for two months) and 99.1% (before exposure to sunlight). For the same compound, the “visual inspection (colour)” value is on record as “yellow” (control sample stored in amber vial in the dark, two months) and “off-white” (light-exposed sample, two months sunlight).
